Experimental data published in the SangsterLogP compilation.

| SMILES | logP |
| --- | --- |
| CCCCCC/C(C)=N\N=C(N)N | 2.08 |
| CCCCCC(CCC)=NNC(=N)N | 2.17 |
| NC(N)=N/N=C(\c1ccccc1)c1cccs1 | 1.96 |
| C/C(=N/N/C(N)=N/c1ccccc1)c1ccccc1 | 2.18 |
| NC(=Nc1ccccc1)NN=Cc1ccc2ccccc2n1 | 0.99 |
| N=C(N)NN=Cc1ccccc1 | 1.18 |
| CCC/C(=N\NC(N)=Nc1ccccc1)c1ccccc1 | 2.08 |
| NC(N)=N/N=C/c1cccs1 | 0.98 |
| CCCC(CCC)=NNC(=N)N | 1.73 |
| CC(=NN=C(N)N)c1cccs1 | 1.05 |
| CCCC(CCC)=NNC(N)=Nc1ccccc1 | 2.33 |
| CCCCC(C)=NNC(N)=Nc1ccccc1 | 2.05 |
